Measurements from patent US5691361A, “1,4-dihydropyridine derivatives, a process for their preparation and their use for influencing the blood flow” (priority 1995, dated 1997).
pEC50, pIC50: −log10 of the molar value.

Assays:
[1] = test system: rabbit aorta; assay: Vasodilatory effect: inhibition of calcium-induced contraction of K+-depolarized isolated rabbit aorta strips; format: cell-based, white New Zealand rabbits; conditions: Oryctolagus cuniculus
Experimental: (§1) The vasodilatory effects are tested as follows: an isolated aorta of the thorax of white New Zealand rabbits is secured in an organ bath. The contractile activity of the helical throacic aorta strip is recorded after depolarization with Krebs solution without calcium (35 mM, potassium) and addition of external calcium pulses (1.5 mM). The compounds are added in increasing concentrations before calcium is reintroduced.

[2] = test system: left stimulated rabbit atrium / rabbit aorta; assay: Tissue selectivity: ratio of IC50 in left stimulated isolated rabbit atrium to IC50 in K+-depolarized rabbit aorta; format: cell-based; conditions: ratio of IC50 in left stimulated rabbit atrium and IC50 in rabbit aorta
Experimental: as §1
The electrical stimulation is fixed at 1 Hz. After one hour equilibration the percentage contraction is set at 100%, increased concentrations of the compounds are added to the bath every 15 minutes and the changes in the contractile force are recorded. The IC50 values are calculated by interpolation from the concentration-effect relationship determined in each of the experiments.

[3] = test system: spontaneously hypertensive rats (SHR); assay: Antihypertensive activity in spontaneously hypertensive rats (systolic blood pressure, tail plethysmography); format: in vivo, spontaneously hypertensive rats (SHR) of Okamoto strain; conditions: Rattus norvegicus, single oral dose 20 mg/kg, 2 hours after treatment
Experimental: The antihypertensive activity of the compounds of the invention is tested in spontaneously hypertensive rats (SHR) of Okamoto strain. Systolic blood pressure is monitored by tail plethysmography. The animals are trained for two weeks for the monitoring process. On the day of the experiment the rats are placed in an oven for two hours at 31°±1° C. and blood pressure is recorded graphically. The measurement recorded is the average of five measurements taken in each case. Only animals with basic values of systolic blood pressure over 170 mm Hg are considered hypertensive. After 24 hours fasting the compound to be tested (20 mg/kg) and/or a carrier (20% PEG 400 in 0.5% aqueous methyl cellulose (10 ml/kg)) is orally administered to the selected hypertensive animals by means of a gastric cannula. The values are expressed in percentage variation 2 hours after treatment.

[4] = test system: rabbit aorta strips; assay: Vasoconstrictory effect in rabbit aorta strips at low depolarizing conditions (10 mM K+); format: cell-based; conditions: Oryctolagus cuniculus; rabbit aorta strips predepolarized with 10 mM K+
Experimental: The vasoconstrictory effects are measured at low depolarizing conditions in rabbit aorta strips. 10 mM K^+ is used to obtain a low starting concentration. Subsequently, increasing concentrations of the test compound are added in order to achieve an increase in contraction.
The EC50 (negative logarithm of the molar concentration required to increase the calcium induced contraction of low K^+ depolarized rabbit aorta by 50%) is analysed by interpolation of the corresponding concentration-response curves (table 4).

pIC50 [1]	pEC50 [4]	SMILES	Selectivity index (Atrium/Aorta) [2]	change in vivo at 20 mg/kg [3] [%]
8.99	–	CC1=C(C(=O)OCCCN2C(=O)c3ccccc3S2(=O)=O)C(c2cccc([N+](=O)[O-])c2)C(C(=O)OC(C)C)=C(C)N1 (stereo not shown) [Example 25, 2,6-Dimethyl-5-isopropoxycarbonyl-4-(3-nitrophenyl)-1,4-dihydropyridine-3-carboxylic acid-3-[N-(1,2-benzisothiazolyl-3(2H)one-1,1-dioxide)]-propylester]	205	-1.01
8.89	–	CC1=C(C(=O)OCCCN2C(=O)c3ccccc3S2(=O)=O)C(c2ccccc2Cl)C(C(=O)OC(C)C)=C(C)N1 (stereo not shown) [Example 52, 4-(2-Chlorophenyl)-2,6-dimethyl-5-isopropoxycarbonyl-1,4-dihydropyridine-3-carboxylic acid-3-[N-(1,2-benzisothiazolyl-3(2H)one-1,1-dioxide)]-propylester]	37	19.4
8.75	–	CCOC(=O)C1=C(C)NC(C)=C(C(=O)OCCCN2C(=O)c3ccccc3S2(=O)=O)C1c1cccc(Cl)c1Cl (stereo not shown) [Example 40, 4-(2,3-Dichlorophenyl)-2,6-dimethyl-5-ethoxycarbonyl-1,4-dihydropyridine-3-carboxylic acid-3-[N-(1,2-benzisothiazolyl-3(2H)one-1,1-dioxide)]-propylester]	200	35.5
8.80	–	CC1=C(C(=O)OCCN2C(=O)c3ccccc3S2(=O)=O)C(c2cccc([N+](=O)[O-])c2)C(C(=O)OC(C)(C)C)=C(C)N1 (stereo not shown) [Example 51]	72	24.6
8.86	–	COCCOC(=O)C1=C(C)NC(C)=C(C(=O)OCCCN2C(=O)c3ccccc3S2(=O)=O)C1c1ccccc1C(F)(F)F (stereo not shown) [Example 45, 2,6-Dimethyl-5-(2-methoxyethoxycarbonyl)-4-(2-trifluoromethylphenyl)-1,4-dihydropyridine-3-carboxylic acid-3-[N-(1,2-benzisothiazolyl-3(2H)one-1,1-dioxide)]-propylester]	16	11
8.68	–	CC1=C(C(=O)OCCCN2C(=O)c3ccccc3S2(=O)=O)C(c2cccc(Cl)c2Cl)C(C(=O)OC(C)C)=C(C)N1 (stereo not shown) [Example 42, 4-(2,3-Dichlorophenyl)-2,6-dimethyl-5-isopropoxycarbonyl-1,4-dihydropyridine-3-carboxylic acid-3-[N-(1,2-benzisothiazolyl-3(2H)one-1,1-dioxide)]-propylester]	75	10.5
8.74	–	COC(=O)C1=C(C)NC(C)=C(C(=O)OCCCN2C(=O)c3ccccc3S2(=O)=O)C1c1ccccc1Cl (stereo not shown) [Example 34, 4-(2-Chlorophenyl)-2,6-dimethyl-5-methoxycarbonyl-1,4-dihydropyridine-3-carboxylic acid-3-[N-(1,2-benzisothiazolyl-3(2H)one-1,1-dioxide)]-propylester]	77	11.1
9.60	–	CC1=C(C(=O)OCCN2C(=O)c3ccccc3S2(=O)=O)C(c2cccc(Cl)c2Cl)C(C(=O)OC(C)C)=C(C)N1 (stereo not shown) [Example 16, 4-(2,3-Dichlorophenyl)-2,6-dimethyl-5-isopropoxycarbonyl-1,4-dihydropyridine-3-carboxyic acid-2-[N-(1,2-benzisothiazolyl-3(2H)one-1,1-dioxide)]-ethylester]	2744	7.45
9.12	–	COC(=O)C1=C(C)NC(C)=C(C(=O)OCCCN2C(=O)c3ccccc3S2(=O)=O)C1c1cccc(Cl)c1Cl (stereo not shown) [Example 29, 4-(2,3-Dichlorophenyl)-2,6-dimethyl-5-methoxycarbonyl-1,4-dihydropyridine-3-carboxylic acid-3-[N-(1,2-benzisothiazolyl-3(2H)one-1,1-dioxide)]-propylester]	686	35
–	7.89	COC(=O)C1=C(C)NC(C)=C([N+](=O)[O-])C1c1ccccc1C(F)(F)F (stereo not shown) [BayK-8644, 2,6-dimethyl-3-nitro-4-(2-trifluoromethylphenyl)-1,4-dihydropyridine-5-carboxylic acid methylester, reference compound]	–	–
8.82	–	COC(=O)C1=C(C)NC(C)=C(C(=O)OCCCN2C(=O)c3ccccc3S2(=O)=O)C1c1ccccc1[N+](=O)[O-] (stereo not shown) [Example 37, 2,6-Dimethyl-5-methoxycarbonyl-4-(2-nitrophenyl)-1,4-dihydropyridine-3-carboxylic acid-3-[N-(1,2-benzisothiazolyl-3(2H)one-1,1-dioxide)]-propylester]	80	6.83
9.31	–	CCOC(=O)C1=C(C)NC(C)=C(C(=O)OCCN2C(=O)c3ccccc3S2(=O)=O)C1c1ccccc1C(F)(F)F (stereo not shown) [Example 17, 2,6-Dimethyl-5-ethoxycarbonyl-4-(2-trifluoromethylphenyl)-1,4-dihydropyridine-3-carboxylic acid-2-[N-(1,2-benzisothiazolyl-3(2H)one-1,1-dioxide)]-ethylester]	152	27.3
8.91	–	CC1=C(C(=O)OCCCN2C(=O)c3ccccc3S2(=O)=O)C(c2ccccc2[N+](=O)[O-])C(C(=O)OC(C)C)=C(C)N1 (stereo not shown) [Example 39, 2,6-Dimethyl-5-isopropoxycarbonyl-4-(2-nitrophenyl)-1,4-dihydropyridine-3-carboxylic acid-3-[N-(1,2-benzisothiazolyl-3(2H)one-1,1-dioxide)]-propylester]	15	3.61
9.12	–	CCOC(=O)C1=C(C)NC(C)=C(C(=O)OCCCN2C(=O)c3ccccc3S2(=O)=O)C1c1ccccc1C(F)(F)F (stereo not shown) [Example 43, 2,6-Dimethyl-5-ethoxycarbonyl-4-(2-trifluoromethylphenyl)-1,4-dihydropyridine-3-carboxylic acid-3-[N-(1,2-benzisothiazolyl-3(2H)one-1,1-dioxide)]-propylester]	163	18.6
9.57	–	CC1=C(C(=O)OCCN2C(=O)c3ccccc3S2(=O)=O)C(c2cccc([N+](=O)[O-])c2)C(C(=O)OC(C)C)=C(C)N1 (stereo not shown) [Example 3, 2,6-Dimethyl-5-isopropoxycarbonyl-4-(3-nitrophenyl)-1,4-dihydropyridine-3-carboxylic acid-2-[N-(1,2-benzisothiazolyl-3(2H)one-1,1-dioxide)]-ethylester]	137	19.7
9.01	–	CC1=C(C(=O)OCCN2C(=O)c3ccccc3S2(=O)=O)C(c2ccccc2C(F)(F)F)C(C(=O)OC(C)C)=C(C)N1 (stereo not shown) [Example 18, 2,6-Dimethyl-5-isopropoxycarbonyl-4-(2-trifluoromethylphenyl)-1,4-dihydropyridine-3-carboxylic acid-2-[N-(1,2-benzisothiazolyl-3(2H)one-1,1-dioxide)]-ethylester]	103	37.1

SMILES	pIC50 [1]	pEC50 [4]	Selectivity index (Atrium/Aorta) [2]	change in vivo at 20 mg/kg [3] [%]
CC1=C(C(=O)OCCN2C(=O)c3ccccc3S2(=O)=O)C(c2cccc(Cl)c2Cl)C(C(=O)OC(C)(C)C)=C(C)N1 (stereo not shown) [Example 55, 5-Tert.-butoxycarbonyl-4-(2,3-dichlorophenyl)-2,6-dimethyl-1,4-dihydropyridine-3-carboxylic acid-2-[N-(1,2-benzisothiazolyl-3(2H)one-1,1-dioxide)]-ethylester]	8.64	–	122	35.8
CC1=C(C(=O)OCCN2C(=O)c3ccccc3S2(=O)=O)C(c2ccccc2[N+](=O)[O-])C(C(=O)OC(C)(C)C)=C(C)N1 (stereo not shown) [Example 54, 5-Tert.-butoxycarbonyl-2,6-dimethyl-4-(2-nitrophenyl)-1,4-dihydropyridine-3-carboxylic acid-2-[N-(1,2-benzisothiazolyl-3(2H)one-1,1-dioxide)]-ethylester]	9.15	–	41	23.4
COC(=O)C1=C(C)NC(C)=C(C(=O)OC)C1c1ccccc1[N+](=O)[O-] [nifedipine, 2,6-dimethyl-4-(2-nitrophenyl)-1,4-dihydropyridine-3,5-dicarboxylic acid 3,5-dimethylester, reference compound]	8.54	–	39	35.4
